Measurements reported in BindingDB's records for doi:10.1021/jm990135j (Taisho Pharmaceutical, 1999).
Where a name gives a salt, the structure may show the parent alone.

Target: Sigma non-opioid intracellular receptor 1 (Cavia porcellus) (UniProt Q60492)
Sequence (Q60492 whole entry, looked up): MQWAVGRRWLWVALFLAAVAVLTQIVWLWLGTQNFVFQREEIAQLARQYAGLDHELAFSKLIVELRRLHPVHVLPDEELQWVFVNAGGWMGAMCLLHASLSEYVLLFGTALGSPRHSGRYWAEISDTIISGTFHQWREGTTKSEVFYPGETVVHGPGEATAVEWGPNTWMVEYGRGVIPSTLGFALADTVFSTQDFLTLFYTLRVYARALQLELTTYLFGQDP
Test: In vitro binding affinity at Sigma opioid receptors on guinea pig brain membranes by [3H]-3-PPP displacement.
In the case of CCCC(N)(CCC)Cc1ccc(OC)c(OCCc2ccccc2)c1 [1-(4-Methoxy-3-phenethyloxy-benzyl)-1-propyl-butylamine; compound with (E)-but-2-enedioic acid], the IC50 is reported as > 1000 nM. For CCCCCC(Cc1ccc(OC)c(OCCc2ccccc2)c1)N(CCC)CCC (centres undefined) [[1-(4-Methoxy-3-phenethyloxy-benzyl)-hexyl]-dipropyl-amine; hydrochloride], the IC50 was 30 nM.

Target: Sigma-2 receptor (guinea pig)
Test: TIn vitro binding affinity at Sigma opioid receptor type 2 on guinea pig brain membranes by [3H]DTG displacement in the presence of […].
For CCCNC(CC)Cc1ccc(OC)c(OCCc2ccccc2)c1 (centres undefined) [[1-(4-Methoxy-3-phenethyloxy-benzyl)-propyl]-propyl-amine], the IC50 was 330 nM. CCCCCC(Cc1ccc(OC)c(OCCc2ccccc2)c1)NCCC (centres undefined) [[1-(4-Methoxy-3-phenethyloxy-benzyl)-hexyl]-propyl-amine; hydrochloride] gave an IC50 of 110 nM. Compound CCCC(Cc1ccc(OC)c(OCCc2ccccc2)c1)N(CCC)CCC (centres undefined) [[1-(4-Methoxy-3-phenethyloxy-benzyl)-butyl]-dipropyl-amine] has an IC50 of 420 nM. For CCCCCCC(Cc1ccc(OC)c(OCCc2ccccc2)c1)NCCC (centres undefined) [[1-(4-Methoxy-3-phenethyloxy-benzyl)-heptyl]-propyl-amine], the IC50 was 230 nM.

Target: not listed separately
Test: In vitro binding affinity at Sigma opioid receptors on guinea pig brain membranes by [3H]3-PPP displacement.
With CCCNC(CC)Cc1ccc(OC)c(OCCc2ccccc2)c1 (centres undefined) [[1-(4-Methoxy-3-phenethyloxy-benzyl)-propyl]-propyl-amine] the IC50 was 8 nM. In the case of CCCCCCCCC(Cc1ccc(OC)c(OCCc2ccccc2)c1)NCCC (centres undefined) [[1-(4-Methoxy-3-phenethyloxy-benzyl)-nonyl]-propyl-amine], the IC50 is reported as 170 nM. With CCCCCC(Cc1ccc(OC)c(OCCc2ccccc2)c1)NCCC (centres undefined) [[1-(4-Methoxy-3-phenethyloxy-benzyl)-hexyl]-propyl-amine; hydrochloride] the IC50 was 1.5 nM. CCCNC(C)Cc1ccc(OC)c(OCCc2ccccc2)c1 (centres undefined) [[2-(4-Methoxy-3-phenethyloxy-phenyl)-1-methyl-ethyl]-propyl-amine; hydrochloride] gave an IC50 of 10 nM. In the case of CCCCCCCC(N)Cc1ccc(OC)c(OCCc2ccccc2)c1 (centres undefined) [1-(4-Methoxy-3-phenethyloxy-benzyl)-octylamine], the IC50 is reported as 420 nM. For CCCCCCCCC(Cc1ccc(OC)c(OCCc2ccccc2)c1)N(CCC)CCC (centres undefined) [[1-(4-Methoxy-3-phenethyloxy-benzyl)-nonyl]-dipropyl-amine], the IC50 was > 1000 nM. For CCCN(CCC)C(C)Cc1ccc(OC)c(OCCc2ccccc2)c1 (centres undefined) [[2-(4-Methoxy-3-phenethyloxy-phenyl)-1-methyl-ethyl]-dipropyl-amine], the IC50 was 12 nM. In the case of CCCC(Cc1ccc(OC)c(OCCc2ccccc2)c1)N(CCC)CCC (centres undefined) [[1-(4-Methoxy-3-phenethyloxy-benzyl)-butyl]-dipropyl-amine], the IC50 is reported as 9.5 nM. Compound CCCCCCC(Cc1ccc(OC)c(OCCc2ccccc2)c1)N(CCC)CCC (centres undefined) [[1-(4-Methoxy-3-phenethyloxy-benzyl)-heptyl]-dipropyl-amine] has an IC50 of 150 nM. For CCC(N)Cc1ccc(OC)c(OCCc2ccccc2)c1 (centres undefined) [1-(4-Methoxy-3-phenethyloxy-benzyl)-propylamine; hydrochloride], the IC50 was > 1000 nM. For CCCCCCCCC(N)Cc1ccc(OC)c(OCCc2ccccc2)c1 (centres undefined) [1-(4-Methoxy-3-phenethyloxy-benzyl)-nonylamine], the IC50 was > 1000 nM. CCCCCCCC(Cc1ccc(OC)c(OCCc2ccccc2)c1)N(CCC)CCC (centres undefined) [[1-(4-Methoxy-3-phenethyloxy-benzyl)-octyl]-dipropyl-amine] showed an IC50 of 230 nM. CCCCCCC(N)Cc1ccc(OC)c(OCCc2ccccc2)c1 (centres undefined) [1-(4-Methoxy-3-phenethyloxy-benzyl)-heptylamine] showed an IC50 of 170 nM. For COc1ccc(CC(C)N)cc1OCCc1ccccc1 (centres undefined) [2-(4-Methoxy-3-phenethyloxy-phenyl)-1-methyl-ethylamine; hydrochloride], the IC50 was > 1000 nM. With CCCCC(N)Cc1ccc(OC)c(OCCc2ccccc2)c1 (centres undefined) [1-(4-Methoxy-3-phenethyloxy-benzyl)-pentylamine] the IC50 was 160 nM. CCCCC(Cc1ccc(OC)c(OCCc2ccccc2)c1)N(CCC)CCC (centres undefined) [[1-(4-Methoxy-3-phenethyloxy-benzyl)-pentyl]-dipropyl-amine] gave an IC50 of 29 nM. Compound CCCCCC(N)Cc1ccc(OC)c(OCCc2ccccc2)c1 (centres undefined) [1-(4-Methoxy-3-phenethyloxy-benzyl)-hexylamine; hydrochloride] has an IC50 of 110 nM. CCCCCCC(Cc1ccc(OC)c(OCCc2ccccc2)c1)NCCC (centres undefined) [[1-(4-Methoxy-3-phenethyloxy-benzyl)-heptyl]-propyl-amine] gave an IC50 of 9 nM.
